Among the data in patent US20250325534A1, “MICROBIOCIDAL TETRAHYDROISOQUINOLINE DERIVATIVES” (SYNGENTA CROP PROTECTION AG, priority 2021, published 2025) are inhibition of growth values, retold here.

Common to all, as to type: cell-based
Experiment [1] concerns Monographella nivalis. The experiment can be described thus: Monographella nivalis (Microdochium nivale) / liquid culture (foot rot cereals). The note with it: 96 h, photometrically 4-5 days after application, read-out: control of Monographella nivalis. How it is done:
Example B10: Monographella nivalis (Microdochium nivale)/Liquid Culture (Foot Rot Cereals) Conidia of the fungus from cryogenic storage are directly mixed into a nutrient broth (potato dextrose broth). After placing a DMSO solution of test compound into a microtiter plate (96-well format), the nutrient broth containing the fungal spores is added. The test plates are incubated at 24° C. and the inhibition of growth is determined photometrically 4-5 days after application.

Experiment [2] deals with Mycosphaerella graminicola. In words: Mycosphaerella graminicola (Septoria tritici) / liquid culture (Septoria blotch). The note with it: Zymoseptoria tritici, 96 h, photometrically 4-5 days after application, read-out: control of Mycosphaerella graminicola. How it is done:
Example B19: Mycosphaerella graminicola (Septoria tritici)/Liquid Culture (Septoria Blotch) Conidia of the fungus from cryogenic storage are directly mixed into a nutrient broth (potato dextrose broth). After placing a DMSO solution of test compound into a microtiter plate (96-well format), the nutrient broth containing the fungal spores is added. The test plates are incubated at 24° C. and the inhibition of growth is determined photometrically 4-5 days after application.

In experiment [3] the test system is Mycosphaerella arachidis. The experiment can be described thus: Mycosphaerella arachidis (Cercospora arachidicola) / liquid culture (early leaf spot). Particulars: 96 h, photometrically 4-5 days after application, read-out: control of Mycosphaerella arachidis. How it is done: Example B11: Mycosphaerella arachidis (Cercospora arachidicola)/Liquid Culture (Early Leaf Spot) Conidia of the fungus from cryogenic storage are directly mixed into a nutrient broth (potato dextrose broth). After placing a DMSO solution of test compound into a microtiter plate (96-well format), the nutrient broth containing the fungal spores is added. The test plates are incubated at 24° C. and the inhibition of growth is determined photometrically 4-5 days after application.

As for `CC(=O)C1c2ccccc2C(c2cnn(C)c2)CN1C(=O)c1cc(-c2ccc(F)cc2F)on1` (centres unmarked) [Compound P-17, 1-[2-[5-(2,4-difluorophenyl)isoxazole-3-carbonyl]-4-(1-methylpyrazol-4-yl)-3,4-dihydro-1H-isoquinolin-1-yl]ethanone], the inhibition of growth at 20 ppm in experiment [1] and in experiment [2] was not below 80% throughout.
Take `CC1c2ccc(OCC(F)F)cc2C(C)(c2cnn(C)c2)CN1C(=O)c1cc(-c2ccccc2)on1` (centres unmarked) [Compound P-26, [6-(2,2-difluoroethoxy)-1,4-dimethyl-4-(1-methylpyrazol-4-yl)-1,3-dihydroisoquinolin-2-yl]-(5-phenylisoxazol-3-yl)methanone]: the inhibition of growth at 20 ppm in experiment [3] and in experiment [2] was not below 80% in each case.
On to `CC1c2ccc(O)cc2C(C)(c2cnn(C)c2)CN1C(=O)c1cc(-c2ccc(F)cc2F)on1` (centres unmarked) [Compound P-35, [5-(2,4-difluorophenyl)isoxazol-3-yl]-[6-hydroxy-1,4-dimethyl-4-(1-methylpyrazol-4-yl)-1,3-dihydroisoquinolin-2-yl]methanone], for which the inhibition of growth at 20 ppm in experiment [3] and in experiment [2] was not below 80% each time.
On to `CCC1c2ccccc2C(c2cnn(C)c2)CN1C(=O)c1cc(-c2ccc(F)cc2F)on1` (centres unmarked) [Compound P-36, [5-(2,4-difluorophenyl)isoxazol-3-yl]-[1-ethyl-4-(1-methylpyrazol-4-yl)-3,4-dihydro-1H-isoquinolin-2-yl]methanone], for which the inhibition of growth at 20 ppm in experiment [1] and in experiment [2] was not below 80% throughout.
Regarding `COc1ccc(-c2cc(C(=O)N3Cc4ccccc4C(c4cnn(C)c4)C3)no2)c(F)c1` (centres unmarked) [Compound P-74, [5-(2-fluoro-4-methoxy-phenyl)isoxazol-3-yl]-[4-(1-methylpyrazol-4-yl)-3,4-dihydro-1H-isoquinolin-2-yl]methanone], the inhibition of growth at 20 ppm in experiment [1] is not below 80%.
For `Cc1cccc2c1CN(C(=O)c1cc(-c3ccc(F)cc3F)on1)CC2c1c(C)nn(C)c1C` (centres unmarked) [Compound P-114, [5-(2,4-difluorophenyl)isoxazol-3-yl]-[8-methyl-4-(1,3,5-trimethylpyrazol-4-yl)-3,4-dihydro-1H-isoquinolin-2-yl]methanone], the inhibition of growth at 20 ppm in experiment [3] and in experiment [2] was not below 80% throughout.
With `Cc1nn(C)c(C)c1C1CN(C(=O)c2cc(-c3ccc(F)cc3F)on2)Cc2cccc(F)c21` (centres unmarked) [Compound P-123, [5-(2,4-difluorophenyl)isoxazol-3-yl]-[5-fluoro-4-(1,3,5-trimethylpyrazol-4-yl)-3,4-dihydro-1H-isoquinolin-2-yl]methanone], the inhibition of growth at 20 ppm in experiment [3] and in experiment [2] was not below 80% in each case.
For `Cc1ccc2c(c1)C(c1cnn(C)c1)CN(C(=O)c1cc(-c3ccccc3)on1)C2` (centres unmarked) [Compound P-137, [6-methyl-4-(1-methylpyrazol-4-yl)-3,4-dihydro-1H-isoquinolin-2-yl]-(5-phenylisoxazol-3-yl)methanone], the inhibition of growth at 20 ppm in experiment [3] and in experiment [2] was not below 80% each time.
As for `Cn1cc(C2CN(C(=O)c3ncc(-c4ccccc4)s3)Cc3ccccc32)cn1` (centres unmarked) [Compound P-156, [4-(1-methylpyrazol-4-yl)-3,4-dihydro-1H-isoquinolin-2-yl]-(5-phenylthiazol-2-yl)methanone], the inhibition of growth at 20 ppm in experiment [1] and in experiment [2] was not below 80% each time.
For the compound `Cn1cc(C2CN(C(=O)c3cc(-c4ccc(F)cc4)no3)Cc3ccccc32)cn1` (centres unmarked) [Compound P-160, [3-(4-fluorophenyl)isoxazol-5-yl]-[4-(1-methylpyrazol-4-yl)-3,4-dihydro-1H-isoquinolin-2-yl]methanone], the inhibition of growth at 20 ppm in experiment [1] and in experiment [2] was not below 80% in each case.
Consider `Cn1cc(C2CN(C(=O)c3cc(-c4ccccc4)ns3)Cc3ccccc32)cn1` (centres unmarked) [Compound P-161, [4-(1-methylpyrazol-4-yl)-3,4-dihydro-1H-isoquinolin-2-yl]-(3-phenylisothiazol-5-yl)methanone], for which the inhibition of growth at 20 ppm in experiment [2] was not below 80%.
As to `Cn1cc(C2CN(C(=O)c3cnc(-c4ccccc4)s3)Cc3ccccc32)cn1` (centres unmarked) [Compound P-164, [4-(1-methylpyrazol-4-yl)-3,4-dihydro-1H-isoquinolin-2-yl]-(2-phenylthiazol-5-yl)methanone], the inhibition of growth at 20 ppm in experiment [1] and in experiment [2] was not below 80% throughout.
For `COc1cccc(-c2cc(C(=O)N3Cc4ccccc4C(c4cnn(C)c4)C3)no2)c1` (centres unmarked) [Compound P-167, [5-(3-methoxyphenyl)isoxazol-3-yl]-[4-(1-methylpyrazol-4-yl)-3,4-dihydro-1H-isoquinolin-2-yl]methanone], the inhibition of growth at 20 ppm in experiment [2] was not below 80%.
Turning to `Cn1cc(C2CN(C(=O)c3cc(-c4ccc(F)c(F)c4)on3)Cc3ccccc32)cn1` (centres unmarked) [Compound P-172, [5-(3,4-difluorophenyl)isoxazol-3-yl]-[4-(1-methylpyrazol-4-yl)-3,4-dihydro-1H-isoquinolin-2-yl]methanone], the inhibition of growth at 20 ppm in experiment [3] and in experiment [2] was not below 80% each time.
In the case of `Cn1cc(C2CN(C(=O)c3cc(C4CCCC4)on3)Cc3ccccc32)cn1` (centres unmarked) [Compound P-176, (5-cyclopentylisoxazol-3-yl)-[4-(1-methylpyrazol-4-yl)-3,4-dihydro-1H-isoquinolin-2-yl]methanone], the inhibition of growth at 20 ppm in experiment [3] and in experiment [2] was not below 80% each time.
Turning to `Cn1cc(C2CN(C(=O)c3cc(C4CCCCC4)on3)Cc3ccccc32)cn1` (centres unmarked) [Compound P-177, (5-cyclohexylisoxazol-3-yl)-[4-(1-methylpyrazol-4-yl)-3,4-dihydro-1H-isoquinolin-2-yl]methanone], the inhibition of growth at 20 ppm in experiment [1] and in experiment [2] was not below 80% in each case.
As for `Cn1cc(C2CN(C(=O)c3cc(C4(C)CC4)on3)Cc3ccccc32)cn1` (centres unmarked) [Compound P-184, [5-(1-methylcyclopropyl)isoxazol-3-yl]-[4-(1-methylpyrazol-4-yl)-3,4-dihydro-1H-isoquinolin-2-yl]methanone], in experiment [2], the inhibition of growth at 20 ppm was not below 80%.
The same measure, in the same setting: as for `Cn1cc(C2CN(C(=O)c3cc(C(C)(C)C)on3)Cc3ccccc32)cn1` (centres unmarked) [Compound P-195, (5-tert-butylisoxazol-3-yl)-[4-(1-methylpyrazol-4-yl)-3,4-dihydro-1H-isoquinolin-2-yl]methanone], the figure is not below 80%.
Consider `Cn1cc(C2CN(C(=O)c3cc(-c4ccccc4Cl)on3)Cc3ccccc32)cn1` (centres unmarked) [Compound P-197, [5-(2-chlorophenyl)isoxazol-3-yl]-[4-(1-methylpyrazol-4-yl)-3,4-dihydro-1H-isoquinolin-2-yl]methanone], for which the inhibition of growth at 20 ppm in experiment [1] and in experiment [2] was not below 80% in each case.
Consider `Cn1cc(C2CN(C(=O)c3cc(C4CC4)on3)Cc3ccccc32)cn1` (centres unmarked) [Compound P-202, (5-cyclopropylisoxazol-3-yl)-[4-(1-methylpyrazol-4-yl)-3,4-dihydro-1H-isoquinolin-2-yl]methanone], for which the inhibition of growth at 20 ppm in experiment [2] is not below 80%.
On the same count and under the same terms, the same measure for `CC(C)C1(c2cnn(C)c2)CN(C(=O)c2cc(-c3ccc(F)cc3F)on2)Cc2ccccc21` (centres unmarked) [Compound P-219, [5-(2,4-difluorophenyl)isoxazol-3-yl]-[4-isopropyl-4-(1-methylpyrazol-4-yl)-1,3-dihydroisoquinolin-2-yl]methanone]: not below 80%; for `Cc1c(C2CN(C(=O)c3nnc(C4CC4)s3)Cc3ccccc32)cnn1C` (centres unmarked) [Compound P-233, (5-cyclopropyl-1,3,4-thiadiazol-2-yl)-[4-(1,5-dimethylpyrazol-4-yl)-3,4-dihydro-1H-isoquinolin-2-yl]methanone]: not below 80%; for `Cc1c(C2CN(C(=O)c3cc(C4CCCC4)on3)Cc3ccccc32)cnn1C` (centres unmarked) [Compound P-235, (5-cyclopentylisoxazol-3-yl)-[4-(1,5-dimethylpyrazol-4-yl)-3,4-dihydro-1H-isoquinolin-2-yl]methanone]: not below 80%.
Same read-out and setting: the same measure for `Cc1c(C2CN(C(=O)c3cc(C4CC4)on3)Cc3ccccc32)cnn1C` (centres unmarked) [Compound P-237, (5-cyclopropylisoxazol-3-yl)-[4-(1,5-dimethylpyrazol-4-yl)-3,4-dihydro-1H-isoquinolin-2-yl]methanone]: not below 80%; for `CCc1nnc(C(=O)N2Cc3ccccc3C(c3cnn(C)c3C)C2)s1` (centres unmarked) [Compound P-244, [4-(1,5-dimethylpyrazol-4-yl)-3,4-dihydro-1H-isoquinolin-2-yl]-(5-ethyl-1,3,4-thiadiazol-2-yl)methanone]: not below 80%.
As to `CC(C)C1(c2cnn(C)c2)CN(C(=O)c2cc(-c3ccc(F)cc3F)on2)Cc2ccccc21` (centres unmarked) [Compound P-246, [5-(2,4-difluorophenyl)isoxazol-3-yl]-[4-isopropyl-4-(1-methylpyrazol-4-yl)-1,3-dihydroisoquinolin-2-yl]methanone], in experiment [1], the inhibition of growth at 20 ppm is not below 80%.
Same read-out and setting: as for `CCC1(c2cnn(C)c2)CN(C(=O)c2cc(-c3ccc(F)cc3F)on2)Cc2ccccc21` (centres unmarked) [Compound P-248, [5-(2,4-difluorophenyl)isoxazol-3-yl]-[4-ethyl-4-(1-methylpyrazol-4-yl)-1,3-dihydroisoquinolin-2-yl]methanone], the figure is not below 80%.
